Test results: publication PMC7893792 (ACS Omega, 2021)

B1: rOat3 (Rattus norvegicus) (protein)
chain: MTFSEILDRVGSMGPFQYLHVTLLALPVLGIANHNLLQIFTATTPVHHCRPPPNASIGPWVLPLDPNGKPEKCLRFVHLPNASLPNDTQRATEPCLDGWIYNSTRDTIVIEWDLVCSSNKLKEMAQSIFMAGILVGGPVIGELSDRFGRKPILTWSYLMLAASGSGAAFSPSLPVYMIFRFLCGCSISGISLSTVILNVEWVPTSMRAISSTSIGYCYTIGQFILSGLAYAIPQWRWLQLTSSAPFFIFSLLSWWVPESIRWLVLSGKYSKALKTLQRVATFNGKKEEGKKLTIEELKFNLQKDITSAKVKYGLSDLFRVSILRRVTFCLSLAWFSTGFAYYSLAMGVEEFGVNIYILQIIFGGVDIPAKFITILSLSYLGRRITQSFLLLLAGGAILALIFVPSEMQLLRTALAVFGKGCLSGSFSCLFLYTSELYPTVLRQTGMGISNVWARVGSMIAPLVKITGELQPFIPNVIFGTTALLGGSAAFFLLETLNRPLPETIEDIQNWHKQVQKTKQESEAEKASQIIPLKTGG

Legend:
[1] = cited from earlier work
[2] = substrate: O=C(O)c1ccc(C(=O)O)c(-c2c3ccc(=O)cc-3oc3cc(O)ccc23)c1; assay: 6-CF uptake by rOat3-expressing HEK293 cells; format: cell-based, rat; settings: other: HEK293-rOat3, 2 min, 37 °C, pH 7.4, 1-100 μM 6-CF

Row | Molecule | Binding to serum protein [1] [%] | Km [2] [µM]
1 | carboxyfluorescein | ~90 | 
2 | B1 |  | 2.52 ± 0.48
